# Laboratory results as given in patent publication US10954305B2 (Immunomedics, Inc., priority 2016, dated 2021).
# T1: Trop-2 on multiple cell lines (Homo sapiens, UniProt P09758)
# T1 construct: endogenous in cells; host or cells: human solid tumour cell lines
# T1 sequence (P09758 27-323): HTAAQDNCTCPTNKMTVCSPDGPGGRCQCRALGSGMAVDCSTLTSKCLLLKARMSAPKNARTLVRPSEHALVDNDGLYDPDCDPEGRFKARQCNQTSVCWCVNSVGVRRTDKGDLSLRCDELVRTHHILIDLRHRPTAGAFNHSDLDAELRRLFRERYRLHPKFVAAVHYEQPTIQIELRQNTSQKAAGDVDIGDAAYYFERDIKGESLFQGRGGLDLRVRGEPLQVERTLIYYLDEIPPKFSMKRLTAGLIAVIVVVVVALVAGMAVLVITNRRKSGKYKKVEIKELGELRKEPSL
# B1: ^90Y-hPAM4 (conjugate, chains of the INN, looked up)
# VH: QVQLQQSGAEVKKPGASVKVSCEASGYTFPSYVLHWVKQAPGQGLEWIGYINPYNDGTQYNEKFKGKATLTRDTSINTAYMELSRLRSDDTAVYYCARGFGGSYGFAYWGQGTLVTVSS
# VL: DIQLTQSPSSLSASVGDRVTMTCSASSSVSSSYLYWYQQKPGKAPKLWIYSTSNLASGVPARFSGSGSGTDFTLTISSLQPEDSASYFCHQWNRYPYTFGGGTRLEIK
# modifications: 90Y radiolabel
# B2: hPAM4: unconjugated humanized PAM4 anti-MUC5ac antibody (antibody, chains of the INN, looked up, V domains shown)
# VH: QVQLQQSGAEVKKPGASVKVSCEASGYTFPSYVLHWVKQAPGQGLEWIGYINPYNDGTQYNEKFKGKATLTRDTSINTAYMELSRLRSDDTAVYYCARGFGGSYGFAYWGQGTLVTVSS
# VL: DIQLTQSPSSLSASVGDRVTMTCSASSSVSSSYLYWYQQKPGKAPKLWIYSTSNLASGVPARFSGSGSGTDFTLTISSLQPEDSASYFCHQWNRYPYTFGGGTRLEIK
# What was measured:
# [1] = system: SK-MES-1 human squamous cell lung tumors; assay: SK-MES-1 xenograft therapy; type: in vivo, nude mice; conditions: irinotecan at MTD
# [2] = system: MDA-MB-468 TNBC tumors; assay: MDA-MB-468 TNBC xenograft therapy; type: in vivo, nude mice; conditions: one animal each, tumors progressed after irinotecan
# [3] = monotherapy weekly or once every 3 weeks; cited from earlier work
# [4] = in vivo; conditions: nude, mouse, 773 ug
# [5] = system: COLO 205 tumors; assay: COLO 205 xenograft therapy; conditions: 24 mg SN-38/kg, q2dx5
# [6] = system: NCI-N87-S-120 tumors; assay: SN-38-resistant xenograft therapy; conditions: IMMU-132 0.5 mg twice weekly ×4 weeks; irinotecan 40 mg/kg q2dx5
# [7] = system: NCI-N87-S120; assay: in vitro cytotoxicity, MTS (Table 14); type: cell-based, human; conditions: for effect on SN-38 toxicity in S-120 cells: both S-120 cells, in vitro; for reversal of SN-38 resistance vs Ko143 and YHO-13351: limited studies
# Method: (§1) Each cell line was maintained according to the recommendations of ATCC and routinely tested for mycoplasma using MYCOALERT™ mycoplasma detection kits (Lonza). The two SN-38-resistant cell lines, MDA-MB-231-5120 and NCI-N87-S120, were established by continuous exposure of the parental cells to stepwise increased concentrations of SN-38 from 6 pM to 120 nM over a period of approximately 2 years. In addition, a revertant cell line (NCI-N87-S120-REV) was obtained after culturing NCI-N87-S120 in SN-38-free medium for 4 months. The S-120 clones were maintained in medium containing 120 nM of SN-38, but cultured in drug-free medium for 7 to 14 days prior to any experiment. All cells were grown at 37° C. as monolayer cultures in a humidified atmosphere of 5% CO2.
# (§2) In Vitro cytotoxicity. […] Briefly, cells were placed into wells of 96-well plates. […] From these working solutions, serial 5-fold dilutions were made in sterile media to yield final concentrations between 500 and 0.0064 nM in test wells. […] Cytotoxicity was measured as a percent of growth relative to untreated cells. Dose-response curves were generated from the mean of triplicate determinations, and IC50 values were calculated using GraphPad Prism Software V 6.05 (Advanced Graphics Software).
# (§3) The effect of ABCG2 inhibitors on the IC50 values of SN-38 for the parental and resistant cell lines was determined from the respective dose-response curves obtained for SN-38 in the presence of a non-toxic concentration of ABCG2 inhibitors.
# [8] = FIG. 12
# [9] = biological target: ABCG2 (Homo sapiens, UniProt Q9UNQ0); conditions: S-120 cells, FTC 10 μM
# [10] = system: Capan-1 tumors; assay: CL2 vs CL2A linker, Capan-1 xenograft; type: in vivo, mice; conditions: 0.2 mg/kg SN-38 twice weekly × 4 weeks
# Method: FIG. 4C. […] Capan-1 mice (N=10) were treated with 0.2 mg/kg ADC and tumors measured weekly.
# [11] = system: Calu-3 tumors; assay: Calu-3 xenograft therapy; type: in vivo, nude mice; conditions: 0.4 mg/kg SN-38
# [12] = system: BxPC-3; assay: dsDNA breaks, γH2AX flow cytometry; type: cell-based, human; conditions: 20 μg/ml for 30 min
# Method: For drug activity testing, BxPC-3 cells were seeded in 6-well plates at 5×10^5 cells/well and held at 37° C. overnight. […] The following morning, cells were trypsinized briefly, spun down, stained with Fixable Viability Stain 450 (BD Biosciences, San Jose, Calif.), washed with 1% BSA-PBS, and then fixed in 4% formalin for 15 min, washed again and permeabilized in 0.15% Triton-X100 in PBS for another 15 min. After washing twice with 1% BSA-PBS, cells were incubated with mouse anti-γH2AX-AF488 (EMD Millipore Corporation, Temecula, Calif.) for 45 min at 4° C. The signal intensity of γH2AX was measured by flow cytometry using a BD FACSCanto (BD Biosciences, San Jose, Calif.).
# [13] = biological target: T1, Trop-2 on multiple cell lines; assay: in vitro cell binding
# Method: LumiGLO Chemiluminescent Substrate System (KPL, Gaithersberg, Md.) was used to detect antibody binding to cells. Briefly, cells were plated into a 96 black-well, flat-clear-bottom plate overnight. Antibodies were serially diluted 1:2 and added in triplicate, yielding a concentration range from 0.03 to 66.7 nM. After incubating for 1 h at 4° C., the media was removed and the cells washed with fresh cold media followed by the addition of a 1:20,000 dilution of goat-antihuman horseradish peroxidase-conjugated secondary antibody (Jackson Immunoresearch, West Grove, Pa.) for 1 h at 4° C. The plates were again washed before the addition of the LumiGLO reagent. Plates were read for luminescence using an Envision plate reader (Perkin Elmer, Boston Mass.). Data were analyzed by non-linear regression to determine the equilibrium dissociation constant (KD). Statistical comparisons of KD-values were made with Prism GraphPad Software (v4.03) (Advanced Graphics Software, Inc.; Encinitas, Calif.) using an F-Test on the best-fit curves for the data. Significance was set at P<0.05.
# [14] = system: NCI-N87; assay: in vitro cytotoxicity, MTS (Table 14); type: cell-based; conditions: Homo sapiens, YHO-13351 2 μM, Ko143 1 μM where added
# Method: as §1
# In Vitro cytotoxicity. […] Briefly, cells were placed into wells of 96-well plates. […] Cytotoxicity was measured as a percent of growth relative to untreated cells. Dose-response curves were generated from the mean of triplicate determinations, and IC50 values were calculated using GraphPad Prism Software V 6.05 (Advanced Graphics Software).
# as §3
# [15] = system: MDA-MB-231-S120; assay: in vitro cytotoxicity, MTS (Table 14); type: cell-based, human
# Method: as §1, §2, §3
# [16] = system: MDA-MB-231; assay: in vitro cytotoxicity, MTS (Table 14); type: cell-based, human; conditions: Homo sapiens, YHO-13351 2 μM where added
# Method: as §1, §2, §3
# [17] = system: Capan-1 xenografts; assay: combined radioimmunotherapy and ADC, Capan-1 xenograft; type: in vivo, nude mice
# Source text: The present study examined combinations of ^90Y-hPAM4 IgG with RS7-SN-38 in nude mice bearing 0.35 cm^3 subcutaneous xenografts of the human pancreatic cancer cell line, Capan-1. […] These studies provide the first evidence that combined radioimmunotherapy and ADC enhances efficacy at safe doses.
# ABCG2, sequence (Q9UNQ0 whole entry): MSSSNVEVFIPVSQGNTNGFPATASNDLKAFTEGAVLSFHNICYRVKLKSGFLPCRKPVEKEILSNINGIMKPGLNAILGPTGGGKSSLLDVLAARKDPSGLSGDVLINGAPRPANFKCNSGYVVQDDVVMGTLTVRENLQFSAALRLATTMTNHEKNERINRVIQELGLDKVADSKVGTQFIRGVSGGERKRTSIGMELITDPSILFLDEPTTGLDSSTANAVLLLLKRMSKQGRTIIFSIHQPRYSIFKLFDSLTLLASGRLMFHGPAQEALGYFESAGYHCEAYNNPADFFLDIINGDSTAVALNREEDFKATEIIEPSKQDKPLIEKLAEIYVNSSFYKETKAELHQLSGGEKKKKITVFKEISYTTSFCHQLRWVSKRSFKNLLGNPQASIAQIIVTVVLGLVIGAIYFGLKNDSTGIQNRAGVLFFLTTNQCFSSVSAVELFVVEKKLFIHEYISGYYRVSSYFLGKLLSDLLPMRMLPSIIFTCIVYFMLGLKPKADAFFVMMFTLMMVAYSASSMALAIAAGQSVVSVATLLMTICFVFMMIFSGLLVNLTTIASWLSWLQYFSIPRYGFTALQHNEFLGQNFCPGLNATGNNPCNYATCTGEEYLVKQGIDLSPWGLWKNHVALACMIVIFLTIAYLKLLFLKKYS
molecule,measurement,setting,value
"CCc1c2c(nc3ccc(OC(=O)N4CCC(N5CCCCC5)CC4)cc13)-c1cc3c(c(=O)n1C2)COC(=O)[C@]3(O)CC [irinotecan, reference compound]",antitumor effect vs specific conjugate,[1],the same antitumor effects as the specific hRS7-SN-38 conjugate
same,decrease in tumor size on re-treatment,[2],23%
same,grade 3 and 4 neutropenia incidence,[3],14 to 26%
same,AUC,[4],21000 ng·h/mL
same,efficacy at MTD,[5],as effective as hRS7-CL2-SN-38
same,survival benefit,[6],no significant survival benefit
COc1cc2c(cc1OC)CN(CCc1ccc(NC(=O)c3cccc4c(=O)c5cccc(OC)c5[nH]c34)cc1)CC2 [GF120918],effect on SN-38 toxicity in S-120 cells,[7],restored toxicity of SN-38
same,reversal of SN-38 resistance vs Ko143 and YHO-13351,[7],comparable or less potency
CCc1c2c(nc3ccc(O)cc13)-c1cc3c(c(=O)n1C2)COC(=O)[C@]3(O)CC [SN-38 (5 min - 2 h)],AUC,[8],3.9 (µg/mL·h)
COc1ccc2c3c([nH]c2c1)[C@H](C=C(C)C)N1C(=O)[C@@H]2CCCN2C(=O)[C@@H]1C3 [FTC],effect on SN-38 toxicity in S-120 cells,[7],restored toxicity of SN-38
same,reversal of SN-38 resistance vs Ko143 and YHO-13351,[7],comparable or less potency
same,reduction of intracellular PhA on omission of FTC,[9],greater than 95%
hRS7-CL2-SN-38,mice tumor-free at end of study (day 140),[10],40%
same,response at higher dose,[11],remained tumor-free until the end of the study on day 147
CCN(CC)CC(=O)OC1CCN(c2ccc(/C=C(\C#N)c3ccc(OC)c(OC)c3)s2)CC1.CS(=O)(=O)O [YHO-13351],effect on SN-38 toxicity in S-120 cells,[7],restored toxicity of SN-38
CCc1c2c(nc3ccc(O[C@@H]4O[C@H](C(=O)O)[C@@H](O)[C@H](O)[C@H]4O)cc13)-c1cc3c(c(=O)n1C2)COC(=O)[C@]3(O)CC [SN-38G (5 min - 6 h)],AUC,[8],11.6 (µg/mL·h)
hA20-CL2A-SN-38 [reference compound],mice tumor-free at end of study (day 140),[10],20%
same,antitumor effect vs specific conjugate,[1],the same antitumor effects as the specific hRS7-SN-38 conjugate
same,Mean Fluorescence Intensity (γH2AX),[12],2246 ± 58
same,Percent Positive (γH2AX),[12]; listed as hA20-SN-38,12.7 ± 2.4%
hRS7-NEM: hRS7 treated with TCEP and conjugated with N-ethylmaleimide [reference compound],KD,[13],in the sub-nanomolar range
cyclosporine A,reversal of SN-38 resistance vs Ko143 and YHO-13351,[7],comparable or less potency
CC(=O)O[C@H]1C(=O)[C@@]2(C)[C@H]([C@H](OC(=O)c3ccccc3)[C@]3(O)C[C@H](OC(=O)[C@H](O)[C@@H](NC(=O)c4ccccc4)c4ccccc4)C(C)=C1C3(C)C)[C@]1(OC(C)=O)CO[C@@H]1C[C@@H]2O [Paclitaxel],IC50,[14],7.9 ± 4 nM
same,IC50,"[15]; Homo sapiens, MDA-MB-231-S120, YHO-13351 2 μM where added",3.2 ± 0.7 nM
same,RF (resistance factor),[15]; IC50 mean of MDA-MB-231-S120 / MDA-MB-231,1.3
same,IC50,[16],2.5 ± 0.1 nM
same,IC50,"[7]; Homo sapiens, NCI-N87-S120, YHO-13351 2 μM, Ko143 1 μM where added",8.6 ± 6.5 nM
same,RF (resistance factor),[7]; IC50 mean of NCI-N87-S120 / NCI-N87,1.1
B1,mice tumor-free after 20 weeks,[17]; 75 μCi alone,1 of 10
same,animals tumor-free,[17]; 130 μCi RAIT alone,5 of 10
B2,anti-tumor activity of unconjugated antibody,[17]; given alone,Neither unconjugated hPAM4 nor hRS7 antibodies had anti-tumor activity when given alone
